Active and inactive are the calls of the source. The rule behind the calls is not given here.
Columns and labels:
[1] = biological target: T1, Tyrosine-protein phosphatase non-receptor type 11 (Homo sapiens, UniProt Q06124); assay: Inhibition of SHP2 (unknown origin) using 3-o-methylfluorescein phosphate as substrate by fluorescence assay
T1 sequence (Q06124 whole entry): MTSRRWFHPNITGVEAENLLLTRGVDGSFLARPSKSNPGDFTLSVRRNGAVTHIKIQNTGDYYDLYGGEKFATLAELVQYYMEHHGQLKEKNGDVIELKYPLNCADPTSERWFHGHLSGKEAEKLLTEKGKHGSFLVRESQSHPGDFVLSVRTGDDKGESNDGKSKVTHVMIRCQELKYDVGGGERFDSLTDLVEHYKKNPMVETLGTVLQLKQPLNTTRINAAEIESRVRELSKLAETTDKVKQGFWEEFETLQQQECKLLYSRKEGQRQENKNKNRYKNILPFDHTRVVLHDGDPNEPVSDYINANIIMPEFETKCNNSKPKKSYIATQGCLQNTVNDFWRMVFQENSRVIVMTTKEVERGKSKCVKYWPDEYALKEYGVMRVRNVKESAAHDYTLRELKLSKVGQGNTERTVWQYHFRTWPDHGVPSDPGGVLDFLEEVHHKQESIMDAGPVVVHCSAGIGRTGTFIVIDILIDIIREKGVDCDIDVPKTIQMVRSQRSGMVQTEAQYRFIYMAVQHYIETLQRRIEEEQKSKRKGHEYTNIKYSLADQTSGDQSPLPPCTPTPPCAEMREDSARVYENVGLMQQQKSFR

[2] = biological target: T2, Tyrosine-protein phosphatase non-receptor type 1 (Homo sapiens, UniProt P18031); assay: Inhibition of GST-tagged PTP1B (unknown origin) using pNPP as substrate measured for 3 mins by colorimetric assay
T2 sequence (P18031 whole entry): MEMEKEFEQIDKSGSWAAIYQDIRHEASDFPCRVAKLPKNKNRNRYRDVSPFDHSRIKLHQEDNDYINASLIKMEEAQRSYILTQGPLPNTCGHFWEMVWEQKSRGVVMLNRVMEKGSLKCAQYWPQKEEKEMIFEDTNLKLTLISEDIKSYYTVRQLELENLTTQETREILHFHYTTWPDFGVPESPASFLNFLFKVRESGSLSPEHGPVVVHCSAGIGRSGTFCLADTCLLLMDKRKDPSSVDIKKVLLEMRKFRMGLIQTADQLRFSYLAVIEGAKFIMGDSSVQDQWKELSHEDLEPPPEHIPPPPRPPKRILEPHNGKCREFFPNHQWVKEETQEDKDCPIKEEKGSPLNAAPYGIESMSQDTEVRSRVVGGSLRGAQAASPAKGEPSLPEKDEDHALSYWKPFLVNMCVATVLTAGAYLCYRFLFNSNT

[3] = biological target: T3, Tyrosine-protein phosphatase non-receptor type 11 (Homo sapiens) (UniProt Q06124); assay: Inhibition of SHP2 (unknown origin) at 20 ug/ml using 3-o-methylfluorescein phosphate as substrate by fluorescence assay relative to control
T3 sequence (whole entry): T1 sequence (Q06124 whole entry)

[4] = biological target: T4, Tyrosine-protein phosphatase non-receptor type 1 (Homo sapiens) (UniProt P18031); assay: Inhibition of GST-tagged PTP1B (unknown origin) at 20 ug/ml using pNPP as substrate measured for 3 mins by colorimetric assay relative to control
T4 sequence (whole entry): T2 sequence (P18031 whole entry)

[5] = biological target: T3, Tyrosine-protein phosphatase non-receptor type 11 (Homo sapiens); assay: Reversible inhibition of SHP2 (unknown origin) using DiFMUP as substrate by enzyme kinetics based dialysis assay
[6] = biological target: T3, Tyrosine-protein phosphatase non-receptor type 11 (Homo sapiens); assay: Fast binding inhibition of SHP2 (unknown origin) using DiFMUP as substrate by enzyme kinetics assay
[7] = biological target: T5, Tyrosine-protein phosphatase non-receptor type 2 (Homo sapiens, UniProt P17706); assay: Inhibition of GST-tagged TCPTP (unknown origin) using pNPP as substrate measured for 3 mins by colorimetric assay
T5 sequence (P17706 whole entry): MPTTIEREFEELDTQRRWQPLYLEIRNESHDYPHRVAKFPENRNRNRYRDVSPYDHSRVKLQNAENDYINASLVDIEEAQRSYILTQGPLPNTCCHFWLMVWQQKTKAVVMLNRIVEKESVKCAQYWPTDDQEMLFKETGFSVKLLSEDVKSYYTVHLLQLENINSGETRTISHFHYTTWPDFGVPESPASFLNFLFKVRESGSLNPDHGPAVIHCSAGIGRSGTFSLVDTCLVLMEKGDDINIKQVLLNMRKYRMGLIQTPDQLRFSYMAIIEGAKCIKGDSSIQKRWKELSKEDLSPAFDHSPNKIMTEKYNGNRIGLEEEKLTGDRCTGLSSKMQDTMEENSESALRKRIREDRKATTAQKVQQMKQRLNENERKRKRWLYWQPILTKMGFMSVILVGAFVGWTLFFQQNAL

Homo sapiens [8] = species: Homo sapiens; assay: Selectivity index, ratio of IC50 for SHP2 (unknown origin) to IC50 for GST-tagged TCPTP (unknown origin)
[9] = biological target: T3, Tyrosine-protein phosphatase non-receptor type 11 (Homo sapiens); assay: Competitive inhibition of SHP2 (unknown origin) assessed as increase in Km with constant Vmax using DiFMUP as substrate by Lineweaver-Burk plot analysis
Homo sapiens [10] = species: Homo sapiens; assay: Selectivity index, ratio of IC50 for SHP1 (unknown origin) to IC50 for SHP2 (unknown origin)
[11] = biological target: Tyrosine-protein phosphatase non-receptor type 6 (Homo sapiens) (UniProt P29350); assay: Inhibition of SHP1 (unknown origin) at 20 ug/ml using 3-o-methylfluorescein phosphate as substrate by fluorescence assay relative to control
Sequence of Tyrosine-protein phosphatase non-receptor type 6 (Homo sapiens) (P29350 whole entry): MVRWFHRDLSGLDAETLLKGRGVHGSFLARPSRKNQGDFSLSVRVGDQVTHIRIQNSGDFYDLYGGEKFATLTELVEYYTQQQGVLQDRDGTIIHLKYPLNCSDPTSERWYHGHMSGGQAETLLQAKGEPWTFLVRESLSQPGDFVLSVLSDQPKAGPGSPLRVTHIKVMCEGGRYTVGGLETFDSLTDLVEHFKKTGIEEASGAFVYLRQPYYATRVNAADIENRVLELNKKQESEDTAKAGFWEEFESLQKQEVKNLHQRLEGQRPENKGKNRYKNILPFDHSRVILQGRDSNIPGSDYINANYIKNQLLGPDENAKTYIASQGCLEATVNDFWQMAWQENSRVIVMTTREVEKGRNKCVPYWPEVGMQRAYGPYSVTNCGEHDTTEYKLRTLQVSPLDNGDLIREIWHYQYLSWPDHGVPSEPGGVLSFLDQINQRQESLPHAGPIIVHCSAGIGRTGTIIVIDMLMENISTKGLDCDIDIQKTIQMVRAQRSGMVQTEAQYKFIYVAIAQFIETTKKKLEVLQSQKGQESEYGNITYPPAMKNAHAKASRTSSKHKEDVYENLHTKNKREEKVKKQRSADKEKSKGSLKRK

## O=C(Nc1ccccc1)c1ccc(-c2ccc(C(=O)Nc3ccccc3)s2)cc1
[1]
  IC50: 5.75 µM
[2]
  IC50: 3.52 µM

## O=C(Nc1ccc(F)cc1)c1ccc(-c2ccc(C(=O)Nc3ccc(F)cc3)[nH]2)cc1
[1]
  IC50: 20.3 µM
[2]
  IC50: 28.3 µM

## O=C(Nc1ccc(Cl)cc1)c1ccc(-c2ccc(C(=O)Nc3ccc(Cl)cc3)o2)cc1
[3]
  inhibition: < 50%
[2]
  IC50: 15.7 µM

## O=C(NC1CCCCC1)c1ccc(-c2ccc(C(=O)NC3CCCCC3)o2)cc1
[3]
  inhibition: < 50%
[4]
  inhibition: < 50%

## O=C(Nc1ccccc1)c1ccc(-c2ccc(C(=O)Nc3ccccc3)o2)cc1
[1]
  IC50: 4.63 µM
[2]
  IC50: 3.48 µM

## O=C(Nc1ccccc1)c1ccc(-c2ncc(C(=O)Nc3ccccc3)s2)cc1
[3]
  inhibition: < 50%
[2]
  IC50: 7.94 µM

## O=C(Nc1ccc(F)cc1)c1ccc(-c2ccc(C(=O)Nc3ccc(F)cc3)o2)cc1
[3]
  inhibition: < 50%
[2]
  IC50: 10.5 µM

## O=C(Nc1ccc(F)cc1)c1ccc(-c2ccc(C(=O)Nc3ccc(F)cc3)s2)cc1
[5]
  inhibition: Active
[6]
  inhibition: Active
[7]
  IC50: 9.16 µM
[1]
  IC50: 2.63 µM
Homo sapiens [8]
  Ratio IC50: 4
[9]
  inhibition: Active
[4]
  inhibition: < 50%
Homo sapiens [10]
  Ratio IC50: > 43.8
[11]
  inhibition: < 50%

## SODIUM ORTHOVANAD
Homo sapiens [10]
  Ratio IC50: 1.92

## O=C(NC1CCCCC1)c1ccc(-c2ccc(C(=O)NC3CCCCC3)s2)cc1
[1]
  IC50: 10.7 µM
[2]
  IC50: 4.88 µM

## O=C(Nc1ccc(F)cc1)c1ccc(-c2ncc(C(=O)Nc3ccc(F)cc3)s2)cc1
[1]
  IC50: 4.63 µM
[4]
  inhibition: < 50%

## O=C(Nc1ccccc1)c1ccc(-c2ccc(C(=O)Nc3ccccc3)[nH]2)cc1
[3]
  inhibition: < 50%
[2]
  IC50: 23.4 µM
